Test [1] concerns Eastern subterranean termite, Reticulitermes flavipes. Put plainly: Killing activity in termites, compound pipetted onto back. The format is in vivo. Conditions: adults, 1 μL.
The test system of test [2] is adult German cockroaches, Blattella germanica. The test is described as follows: Insecticidal action, time-to-death of adult German cockroaches after 10 μL on the back. Conditions: regardless of male or female. The format is in vivo. The method, then:
Material and Methods: Ten μL of either BioUD 10, pure 2-Undecanone, or Raid were separately applied to the backs (thorax and wings) of adult German cockroaches, Blattella germanica. Insects were separately placed into FLUON®-treated diet cups (Vol.=30 mL, lower diam.=3 cm, height=4 cm) to prevent escape of treated specimens.

This note sets out measurements from patent US20110189251A1, “COMPOUNDS AND COMPOSITIONS FOR THE CONTROL OF PESTS” (priority 2007, published 2011).

Each structure is given as a SMILES string.

In the case of `CCCCCCCCCC(C)=O` [2-Undecanone, 2-undecanone], the “Time-to-death (sec), mean” value in test [1] (castes w and s together) was determined as 171.5 s. In addition, the “Time-to-death” value in test [1] (caste s, single insects) worked out at 146 s. In addition, the “speed of kill relative to the formulated product (BioUD10)” value in test [2] is reported as ~2 ×.
